Measurements published in patent publication US20040162339A1, “Heterocyclic biaryl compounds, pharmaceutical and cosmetic compositions containing them and uses thereof” (priority 1996, published 2004).

| melting point [°C] | Compound |
| --- | --- |
| 137 | CCCCCCC1(c2ccc3c(c2)C(C)(C)CCC3(C)C)COc2cc(C(=O)O)ccc21 (centres unmarked) |
| 268 | CC1(C)CCC(C)(C)c2cc(C3(CC(=O)O)COc4cc(C(=O)O)ccc43)ccc21 (centres unmarked) |
